Key:
[1] = biological target: T1, Human neurokinin (NK1) (Homo sapiens, UniProt P25103); assay: Radioligand binding, human neurokinin NK1 membranes, filtration, [125I]-Substance P; conditions: compound at 10 μM, [125I]-Substance P
T1 construct: purchased Perkin Elmer Biosignal
How it was run: (§1)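 Percent inhibition of radioligand binding measured on recombinant human membranes: NK1 with [125I]-Substance P, KOP with [3H]-Diprenorphine. Incubation 1 h at room temperature, then harvest onto 0.3% PEI-soaked filters, cold Tris-HCl pH 7.4 washes and scintillation counting; non-specific binding from reference ligand wells.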

[2] = biological target: T2, Human neuropeptide Y (NPY-Y1) (Homo sapiens, UniProt P25929); assay: Radioligand binding, human neuropeptide Y NPY-Y1 membranes, FlashPlate, [125I]-PYY; conditions: compound at 10 μM, [125I]-PYY
T2 construct: purchased Perkin Elmer Biosignal
T2 sequence (P25929 1-384): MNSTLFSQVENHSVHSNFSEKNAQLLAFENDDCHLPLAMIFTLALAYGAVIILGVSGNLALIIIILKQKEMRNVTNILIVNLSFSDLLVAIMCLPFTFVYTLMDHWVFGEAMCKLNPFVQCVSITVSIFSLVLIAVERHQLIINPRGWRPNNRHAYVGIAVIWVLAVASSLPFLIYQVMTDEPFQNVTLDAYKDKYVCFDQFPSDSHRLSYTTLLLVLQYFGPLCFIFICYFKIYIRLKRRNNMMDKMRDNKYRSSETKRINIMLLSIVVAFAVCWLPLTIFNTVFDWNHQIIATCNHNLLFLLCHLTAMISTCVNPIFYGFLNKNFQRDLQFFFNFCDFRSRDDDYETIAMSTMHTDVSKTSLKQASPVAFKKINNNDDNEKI
How it was run: (§2)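 Cloned human receptor membranes were coated onto FlashPlate wells and incubated with radioligand and compound (added from a 0.5 mM DMSO daughter plate) for 1 hour at room temperature in the dark. Scintillation counting gave percent inhibition, with DMSO defining total and reference ligand defining non-specific binding.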

[3] = biological target: T3, Human melanocortin (MC5) (Homo sapiens, UniProt P33032); assay: Radioligand binding, human melanocortin MC5 membranes, FlashPlate, [125I]-NDP-αMSH; conditions: compound at 10 μM, [125I]-NDP-αMSH
T3 construct: purchased Perkin Elmer Biosignal
How it was run: as §2

[4] = biological target: T4, Human δ-opioid (DOP) (Homo sapiens, UniProt P41143); assay: Radioligand binding, human δ-opioid (DOP) membranes, FlashPlate, [3H]-Bremazocine; conditions: compound at 10 μM, [3H]-Bremazocine
T4 construct: purchased Perkin Elmer Biosignal
How it was run: as §2

[5] = biological target: T5, Human κ-Opioid (KOP) (Homo sapiens, UniProt P41145); assay: Radioligand binding, human κ-opioid (KOP) membranes, filtration, [3H]-Diprenorphine; conditions: compound at 10 μM, [3H]-Diprenorphine
T5 construct: purchased Perkin Elmer Biosignal
How it was run: as §1

[6] = biological target: T6, Human melanin-concentrating hormone (MCH1) (Homo sapiens, UniProt Q99705); assay: Radioligand binding, human melanin-concentrating hormone MCH1 membranes, FlashPlate, [125I]-S36057; conditions: compound at 10 μM
T6 construct: purchased Perkin Elmer Biosignal
How it was run: as §2

[7] = biological target: T7, Human μ-opioid (MOP) (Homo sapiens, UniProt P35372); assay: Radioligand binding, human μ-opioid (MOP) membranes, FlashPlate, [3H]-Naloxone; conditions: compound at 10 μM, [3H]-Naloxone
T7 construct: purchased Perkin Elmer Biosignal
How it was run: as §2

[8] = biological target: T8, Human Melanocortin (MC3) (Homo sapiens, UniProt P41968); assay: Radioligand binding, human melanocortin MC3 membranes, FlashPlate, [125I]-NDP-αMSH; conditions: compound at 10 μM, [125I]-NDP-αMSH
T8 construct: purchased Perkin Elmer Biosignal
How it was run: as §2

[9] = biological target: T9, Human opioid (ORL1) (Homo sapiens, UniProt P41146); assay: Radioligand binding, human opioid ORL1 membranes, FlashPlate, [125I]-Nociceptin; conditions: compound at 10 μM, [125I]-Nociceptin
T9 construct: purchased Perkin Elmer Biosignal
How it was run: as §2

[10] = biological target: T10, Mouse urotensin (mUR2) (Mus musculus, UniProt Q8VIH9); assay: Radioligand binding, mouse urotensin mUR2 membranes, FlashPlate, [125I]-Urotensin II; conditions: compound at 10 μM, [125I]-Urotensin II
T10 construct: purchased Perkin Elmer Biosignal
T10 sequence (Q8VIH9 1-385): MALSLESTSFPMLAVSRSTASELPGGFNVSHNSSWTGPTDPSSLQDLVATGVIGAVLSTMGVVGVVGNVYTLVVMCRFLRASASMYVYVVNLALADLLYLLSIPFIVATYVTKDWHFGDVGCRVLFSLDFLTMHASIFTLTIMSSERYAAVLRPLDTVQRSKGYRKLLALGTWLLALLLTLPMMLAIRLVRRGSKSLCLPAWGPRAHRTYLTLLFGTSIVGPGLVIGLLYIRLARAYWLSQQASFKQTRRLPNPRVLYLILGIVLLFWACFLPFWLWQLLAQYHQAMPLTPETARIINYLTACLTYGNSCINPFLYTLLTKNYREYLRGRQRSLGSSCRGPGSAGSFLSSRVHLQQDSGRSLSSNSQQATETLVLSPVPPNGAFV
How it was run: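 Cloned mouse urotensin (mUR2) receptor membranes from Perkin Elmer Biosignal were immobilized in FlashPlate microplates using a proprietary coating. Each well got 19.5 μl buffer, then 0.5 μl of DMSO, reference ligand, or compound. Adding 5 μl of [125I]-Urotensin II, diluted to 5× final concentration in binding buffer, started binding. Plates were sealed with TopSeal-A and incubated 1 hour at room temperature in the dark. Wells were counted for 30 seconds each on a TopCount after a 60-second delay, and percentage inhibition was calculated.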

[11] = biological target: T11, Human Melanocortin (MC4) (Homo sapiens, UniProt P32245); assay: Radioligand binding, human melanocortin MC4 membranes, FlashPlate, [125I]-NDP-αMSH; conditions: compound at 10 μM, [125I]-NDP-αMSH
T11 construct: purchased Perkin Elmer Biosignal
How it was run: as §2

T7 sequence (P35372 whole entry): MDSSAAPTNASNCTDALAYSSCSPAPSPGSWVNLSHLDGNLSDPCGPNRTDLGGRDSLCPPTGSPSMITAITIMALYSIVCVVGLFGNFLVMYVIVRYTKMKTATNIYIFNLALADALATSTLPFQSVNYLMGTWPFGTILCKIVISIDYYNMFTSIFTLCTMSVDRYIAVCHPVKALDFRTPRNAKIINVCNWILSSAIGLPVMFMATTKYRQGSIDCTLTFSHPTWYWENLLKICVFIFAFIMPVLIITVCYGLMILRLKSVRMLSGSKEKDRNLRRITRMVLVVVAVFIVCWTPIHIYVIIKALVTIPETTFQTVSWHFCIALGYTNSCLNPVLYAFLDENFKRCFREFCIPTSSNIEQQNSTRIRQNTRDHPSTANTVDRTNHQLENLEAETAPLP
T3 sequence (P33032 whole entry): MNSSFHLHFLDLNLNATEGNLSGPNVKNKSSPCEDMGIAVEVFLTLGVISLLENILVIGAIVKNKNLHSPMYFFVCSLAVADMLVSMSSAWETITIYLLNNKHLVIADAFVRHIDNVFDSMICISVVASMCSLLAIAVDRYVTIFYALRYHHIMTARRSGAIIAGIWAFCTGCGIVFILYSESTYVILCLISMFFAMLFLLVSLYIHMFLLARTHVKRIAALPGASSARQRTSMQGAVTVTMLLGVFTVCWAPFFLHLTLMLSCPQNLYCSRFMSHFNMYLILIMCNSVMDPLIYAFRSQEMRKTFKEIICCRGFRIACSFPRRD
T9 sequence (P41146 whole entry): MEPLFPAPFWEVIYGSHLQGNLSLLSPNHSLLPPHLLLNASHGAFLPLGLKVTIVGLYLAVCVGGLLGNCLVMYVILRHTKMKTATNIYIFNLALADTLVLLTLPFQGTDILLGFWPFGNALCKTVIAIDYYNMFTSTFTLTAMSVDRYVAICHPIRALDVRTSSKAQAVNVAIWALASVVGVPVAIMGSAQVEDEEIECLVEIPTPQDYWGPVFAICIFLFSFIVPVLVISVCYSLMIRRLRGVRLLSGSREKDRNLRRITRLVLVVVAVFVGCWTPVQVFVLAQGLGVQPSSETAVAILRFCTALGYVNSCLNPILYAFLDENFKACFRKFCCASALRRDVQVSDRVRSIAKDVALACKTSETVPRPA
T1 sequence (P25103 whole entry): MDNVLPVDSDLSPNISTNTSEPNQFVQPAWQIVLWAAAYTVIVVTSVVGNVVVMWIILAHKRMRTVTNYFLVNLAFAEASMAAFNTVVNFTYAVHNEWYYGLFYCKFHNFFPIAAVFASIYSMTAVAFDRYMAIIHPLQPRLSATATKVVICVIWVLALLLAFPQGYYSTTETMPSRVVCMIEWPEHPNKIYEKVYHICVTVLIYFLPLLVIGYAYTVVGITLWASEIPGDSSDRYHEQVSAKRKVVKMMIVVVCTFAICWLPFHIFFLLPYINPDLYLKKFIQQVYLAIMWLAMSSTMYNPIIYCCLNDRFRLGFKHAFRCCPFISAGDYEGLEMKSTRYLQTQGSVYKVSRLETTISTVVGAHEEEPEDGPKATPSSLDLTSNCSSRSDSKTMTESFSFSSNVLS
T8 sequence (P41968 whole entry): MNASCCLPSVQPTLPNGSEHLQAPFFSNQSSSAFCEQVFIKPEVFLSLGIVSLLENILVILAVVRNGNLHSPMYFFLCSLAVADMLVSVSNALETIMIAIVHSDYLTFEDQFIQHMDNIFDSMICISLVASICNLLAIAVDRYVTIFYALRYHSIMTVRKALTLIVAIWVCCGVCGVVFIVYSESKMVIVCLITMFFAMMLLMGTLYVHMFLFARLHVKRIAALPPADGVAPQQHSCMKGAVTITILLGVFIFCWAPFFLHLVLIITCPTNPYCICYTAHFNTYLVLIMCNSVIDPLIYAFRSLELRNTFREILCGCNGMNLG
T11 sequence (P32245 whole entry): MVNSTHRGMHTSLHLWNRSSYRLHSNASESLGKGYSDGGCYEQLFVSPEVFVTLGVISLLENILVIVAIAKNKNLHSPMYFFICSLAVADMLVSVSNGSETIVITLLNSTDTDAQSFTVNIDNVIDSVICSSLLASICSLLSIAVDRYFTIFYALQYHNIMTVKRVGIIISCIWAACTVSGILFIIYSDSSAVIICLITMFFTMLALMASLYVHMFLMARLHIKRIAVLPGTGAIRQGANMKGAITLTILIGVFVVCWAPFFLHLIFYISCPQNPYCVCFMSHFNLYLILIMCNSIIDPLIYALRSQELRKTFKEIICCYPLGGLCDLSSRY
T4 sequence (P41143 whole entry): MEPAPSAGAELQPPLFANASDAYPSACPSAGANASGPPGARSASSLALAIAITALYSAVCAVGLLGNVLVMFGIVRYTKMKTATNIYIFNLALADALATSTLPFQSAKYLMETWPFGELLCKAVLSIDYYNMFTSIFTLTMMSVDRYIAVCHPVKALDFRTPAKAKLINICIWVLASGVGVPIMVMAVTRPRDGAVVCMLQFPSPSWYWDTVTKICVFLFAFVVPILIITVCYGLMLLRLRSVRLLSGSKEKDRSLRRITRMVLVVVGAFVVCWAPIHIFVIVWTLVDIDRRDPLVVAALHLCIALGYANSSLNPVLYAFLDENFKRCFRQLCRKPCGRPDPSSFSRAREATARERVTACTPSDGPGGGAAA
T6 sequence (Q99705 whole entry): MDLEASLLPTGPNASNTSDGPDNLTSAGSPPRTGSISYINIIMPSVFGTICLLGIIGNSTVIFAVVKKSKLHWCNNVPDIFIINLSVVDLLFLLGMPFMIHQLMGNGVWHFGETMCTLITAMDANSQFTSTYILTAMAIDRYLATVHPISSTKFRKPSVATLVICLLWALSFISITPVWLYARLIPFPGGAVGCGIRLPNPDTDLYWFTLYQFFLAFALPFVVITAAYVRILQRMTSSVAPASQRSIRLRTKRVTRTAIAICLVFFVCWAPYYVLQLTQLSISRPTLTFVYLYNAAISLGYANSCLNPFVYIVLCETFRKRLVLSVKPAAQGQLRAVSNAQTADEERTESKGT
T5 sequence (P41145 whole entry): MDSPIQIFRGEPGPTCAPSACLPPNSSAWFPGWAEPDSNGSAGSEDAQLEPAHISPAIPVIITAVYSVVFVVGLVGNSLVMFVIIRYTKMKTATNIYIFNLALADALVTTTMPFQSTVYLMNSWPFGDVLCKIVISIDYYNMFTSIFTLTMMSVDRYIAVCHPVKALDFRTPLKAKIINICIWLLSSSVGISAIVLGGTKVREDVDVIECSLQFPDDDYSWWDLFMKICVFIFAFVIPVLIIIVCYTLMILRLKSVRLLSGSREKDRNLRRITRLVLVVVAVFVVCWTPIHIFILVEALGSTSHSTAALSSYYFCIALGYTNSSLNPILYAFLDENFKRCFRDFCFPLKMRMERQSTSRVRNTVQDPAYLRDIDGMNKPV

In the case of `CO[C@H]1[C@H](O)[C@@H](COCc2ccc(Cl)cc2)OC(OCCc2ccccc2)[C@@H]1NC(=O)CNC(=N)N` (stereo partly shown) [compound 119], the “A8 radioligand binding, percentage inhibition” value [1] is reported as “+ (“+” indicates greater than 50% inhibition at 10 μM)”, the “A9 radioligand binding, percentage inhibition” value [2] is reported as “− (“−” indicates less than 50% inhibition at 10 μM)” and the “A5 radioligand binding, percentage inhibition” value [3] is reported as “− (“−” indicates less than 50% inhibition at 10 μM)”. The “A1 radioligand binding, percentage inhibition” value [4] was “− (“−” indicates less than 50% inhibition at 10 μM)”, the “A2 radioligand binding, percentage inhibition” value [5] was “− (“−” indicates less than 50% inhibition at 10 μM)” and the “A6 radioligand binding, percentage inhibition” value ([6]; [125I]-S36057) was “− (“−” indicates less than 50% inhibition at 10 μM)”. For the same compound, the “A7 radioligand binding, percentage inhibition” value [7] was “− (“−” indicates less than 50% inhibition at 10 μM)”, the “A3 radioligand binding, percentage inhibition” value [8] was “− (“−” indicates less than 50% inhibition at 10 μM)” and the “A10 radioligand binding, percentage inhibition” value [9] was “− (“−” indicates less than 50% inhibition at 10 μM)”. The “A11 radioligand binding, percentage inhibition” value [10] was “− (“−” indicates less than 50% inhibition at 10 μM)” and the “A4 radioligand binding, percentage inhibition” value [11] was “− (“−” indicates less than 50% inhibition at 10 μM)”.

With `NCCC(=O)N[C@H]1C(OCc2ccc3ccccc3c2)O[C@H](COCc2ccc(Cl)cc2)[C@@H](O)[C@@H]1OCc1ccc(Cl)cc1` (stereo partly shown) [compound 440] the “A8: inhibition of radioligand binding” value ([1]; human NK1 membranes) was “+ (“+” indicates greater than 50% inhibition at 10 μM)”, the “A9: inhibition of radioligand binding” value ([2]; human NPY-Y1 membranes) was “− (“−” indicates less than 50% inhibition at 10 μM)” and the “A5: inhibition of radioligand binding” value ([3]; human MC5 membranes) was “+ (“+” indicates greater than 50% inhibition at 10 μM)”. The “A1: inhibition of radioligand binding” value ([4]; human DOP membranes) was “− (“−” indicates less than 50% inhibition at 10 μM)”, the “A2: inhibition of radioligand binding” value ([5]; human KOP membranes) was “− (“−” indicates less than 50% inhibition at 10 μM)” and the “A6: inhibition of radioligand binding” value ([6]; [125I]-S36057, human MCH1 membranes) was “+ (“+” indicates greater than 50% inhibition at 10 μM)”. The “A7: inhibition of radioligand binding” value ([7]; human MOP membranes) was “− (“−” indicates less than 50% inhibition at 10 μM)”, the “A3: inhibition of radioligand binding” value ([8]; human MC3 membranes, 10 µM) was “− (“−” indicates less than 50% inhibition at 10 μM)” and the “A10: inhibition of radioligand binding” value ([9]; human ORL1 membranes) was “− (“−” indicates less than 50% inhibition at 10 μM)”. For the same compound, the “A11: inhibition of radioligand binding” value ([10]; mouse mUR2 membranes) was “− (“−” indicates less than 50% inhibition at 10 μM)” and the “A4: inhibition of radioligand binding” value ([11]; human MC4 membranes, 10 µM) was “− (“−” indicates less than 50% inhibition at 10 μM)”.

`COCC1OC(OCc2ccc3ccccc3c2)C(NC(=O)CCN)C(OCc2ccc3ccccc3c2)C1O` (stereo not shown) [compound 545] was tested, and the “A8: inhibition of radioligand binding, human neurokinin (NK1)” value ([1]; 10 µM) was “+ (“+” indicates greater than 50% inhibition at 10 μM)”, the “A9: inhibition of radioligand binding, human neuropeptide Y (NPY-Y1)” value [2] was “− (“−” indicates less than 50% inhibition at 10 μM)” and the “A5: inhibition of radioligand binding, human melanocortin (MC5)” value ([3]; 10 µM) was “− (“−” indicates less than 50% inhibition at 10 μM)”. For the same compound, the “A1: inhibition of radioligand binding, human δ-opioid (DOP)” value [4] was “− (“−” indicates less than 50% inhibition at 10 μM)”, the “A2: inhibition of radioligand binding, human κ-opioid (KOP)” value [5] was “− (“−” indicates less than 50% inhibition at 10 μM)” and the “A6: inhibition of radioligand binding, human melanin-concentrating hormone (MCH1)” value ([6]; [125I]-S36057) was “− (“−” indicates less than 50% inhibition at 10 μM)”. The “A7: inhibition of radioligand binding, human μ-opioid (MOP)” value [7] was “− (“−” indicates less than 50% inhibition at 10 μM)”, the “A3: inhibition of radioligand binding, human melanocortin (MC3)” value [8] was “− (“−” indicates less than 50% inhibition at 10 μM)” and the “A10: inhibition of radioligand binding, human opioid (ORL1)” value [9] was “− (“−” indicates less than 50% inhibition at 10 μM)”. For the same compound, the “A11: inhibition of radioligand binding, mouse urotensin (mUR2)” value [10] was “− (“−” indicates less than 50% inhibition at 10 μM)” and the “A4: inhibition of radioligand binding, human melanocortin (MC4)” value [11] was “− (“−” indicates less than 50% inhibition at 10 μM)”.

With `COCC1OC(OCc2ccc(Cl)cc2)C(NC(=O)CN)C(OCc2ccc3ccccc3c2)C1O` (stereo not shown) [compound 208] the “A8: inhibition of radioligand binding” value ([1]; filtration) was “+ (“+” indicates greater than 50% inhibition at 10 μM)”, the “A9: inhibition of radioligand binding” value ([2]; FlashPlate) was “− (“−” indicates less than 50% inhibition at 10 μM)” and the “A5: inhibition of radioligand binding” value ([3]; FlashPlate) was “+ (“+” indicates greater than 50% inhibition at 10 μM)”. For the same compound, the “A1: inhibition of radioligand binding” value ([4]; FlashPlate) was “− (“−” indicates less than 50% inhibition at 10 μM)”, the “A2: inhibition of radioligand binding” value ([5]; filtration) was “− (“−” indicates less than 50% inhibition at 10 μM)” and the “A6: inhibition of radioligand binding” value ([6]; [125I]-S36057, FlashPlate) was “− (“−” indicates less than 50% inhibition at 10 μM)”. The “A7: inhibition of radioligand binding” value ([7]; FlashPlate) was “− (“−” indicates less than 50% inhibition at 10 μM)”, the “A3: inhibition of radioligand binding” value ([8]; FlashPlate) was “− (“−” indicates less than 50% inhibition at 10 μM)” and the “A10: inhibition of radioligand binding” value ([9]; FlashPlate) was “− (“−” indicates less than 50% inhibition at 10 μM)”. For the same compound, the “A11: inhibition of radioligand binding” value ([10]; FlashPlate) was “− (“−” indicates less than 50% inhibition at 10 μM)” and the “A4: inhibition of radioligand binding” value ([11]; FlashPlate) was “− (“−” indicates less than 50% inhibition at 10 μM)”.

With `CSC1O[C@H](COCc2ccccc2)[C@@H](O)[C@@H](OCc2ccc(-c3ccccc3)cc2)[C@H]1NC(=O)CCCNC(=N)N` (stereo partly shown) [compound 287] the “A8: inhibition of radioligand binding, human neurokinin (NK1)” value [1] was “+ (“+” indicates greater than 50% inhibition at 10 μM)”, the “A9: inhibition of radioligand binding, human neuropeptide Y (NPY-Y1)” value [2] was “− (“−” indicates less than 50% inhibition at 10 μM)” and the “A5: inhibition of radioligand binding, human melanocortin (MC5)” value [3] was “− (“−” indicates less than 50% inhibition at 10 μM)”. For the same compound, the “A1: inhibition of radioligand binding, human δ-opioid (DOP)” value [4] was “− (“−” indicates less than 50% inhibition at 10 μM)”, the “A2: inhibition of radioligand binding, human κ-opioid (KOP)” value [5] was “− (“−” indicates less than 50% inhibition at 10 μM)” and the “A6: inhibition of radioligand binding, human melanin-concentrating hormone (MCH1)” value ([6]; [125I]-S36057) was “− (“−” indicates less than 50% inhibition at 10 μM)”. For the same compound, the “A7: inhibition of radioligand binding, human μ-opioid (MOP)” value [7] was “− (“−” indicates less than 50% inhibition at 10 μM)”, the “A3: inhibition of radioligand binding, human melanocortin (MC3)” value [8] was “− (“−” indicates less than 50% inhibition at 10 μM)” and the “A10: inhibition of radioligand binding, human opioid (ORL1)” value [9] was “− (“−” indicates less than 50% inhibition at 10 μM)”. For the same compound, the “A11: inhibition of radioligand binding, mouse urotensin (mUR2)” value [10] was “− (“−” indicates less than 50% inhibition at 10 μM)” and the “A4: inhibition of radioligand binding, human melanocortin (MC4)” value [11] was “− (“−” indicates less than 50% inhibition at 10 μM)”.
